Tested on: 677734-321-R-J1-PDC complex spheroid viability
Test: Anticancer human tumor 677734-321-R-J1-PDC patient-derived soft tissue sarcoma cell line growth inhibition [POLQ]
Details: for IC50: curve of first compound; for viability, T/C: stronger effect = lower value
Description: Multicellular complex tumor spheroid response to Polymerase (POL) inhibitors (novobiocin, ART-558, RP6685) in combination with a variety of drugs and investigational agents in selected tumor cell lines
The POL inhibitors (novobiocin, ART-558, and RP6685) were evaluated both individually and in combination with standard of care and investigational anticancer small molecules within a complex spheroid model of solid tumors. . Complex spheroids include a stromal component modeled by human endothelial cells (HUVEC) and fibroblasts modeled by human mesenchymal stem cells (MSCs). The concentration ranges selected for each drug and investigational agent were based upon clinically achievable concentrations if the clinical Cmax of the agent was known.
Compounds. The drugs and investigational agents: novobiocin (NSC847541), ART-558 (NSC835418), RP-6685 (NSC848927), peposertib (NSC802822), ceralasertib (NSC780249), elimusertib (NSC800525), camonsertib (NSC841442), AZD-1390 (NSC803789), olaparib (NSC753686), talazoparib (NSC767125), rucaparib (NSC756644), sotorasib (NSC818433), MRTX-1133 (NSC836407), SN-38 (NSC673596), topotecan (NSC609699), epotoside (NSC141540), doxorubicin (NSC123127), gemcitabine (NSC613327), 5-fluorouracil (NSC19893), paclitaxel (NSC125973), vemurafenib (NSC761431), MSA-2 (NSC828583), SN-011 (NSC837082), adavosertib (NSC754352), prexasertib (NSC758257), carboplatin (NSC241240) and oxaliplatin (NSC266046), were obtained from the National Cancer Institute (NCI) Developmental Therapeutics Program Chemical Repository (21). The FDA-approved anticancer drug set is available from the Developmental Therapeutics Program at https://dtp.cancer.gov/organization/dscb/obtaining/. […] The stock solutions were prepared in dimethyl sulfoxide (DMSO, Sigma-Aldrich, St. Louis, MO, cat. D2650), except for the platinum compounds which were prepared in saline (Quality Biological, Gaithersburg, MD, cat. 114-055-101), at 800-fold the tested concentration and stored at -70 degrees C prior to their use. All drugs and investigational agents were tested over a range starting from a high concentration at or near the clinical Cmax and decreasing in half-log increments. If the clinical Cmax for an agent had not been determined, the highest concentration tested was 10 microM, except for SN-38, which was tested at a high concentration of 1 microM.
Cell Culture. All cells were maintained in an incubator at 37 degrees C and 5% CO2 with 95% humidity. The PDC lines were cultured according to standard operating procedures established by the NCI PDMR (https://pdmr.cancer.gov). Table 3 of the manuscript, lists the cell lines along with the number of the three cell types plated to form the mct-spheroids and media for tumor cell growth. After thawing, all PDC lines, except 997537-175-T-J1-PDC and 415267-285-R-J2-PDC, were cultured in Matrigel-coated flasks prepared with a working solution of 1X Ham's F-12 nutrient mix, without supplementation (Thermo Fisher Scientific, cat. 11765054), 100 U/mL penicillin-streptomycin (Thermo Fisher Scientific, cat. 15140122), and 2.5% Matrigel (Corning Inc., Corning, NY, cat. 354248) for the first three passages. The two PDC lines 997537-175-T-J1-PDC and 415267-285-R-J2-PDC were cultured on uncoated flasks. The 857933-349-R-J2-PDC line was cultured in 6C/Colon 1B media containing advanced DMEM/F-12 (Thermo Fisher Scientific, cat. 12634028), 10 mM HEPES (Thermo Fisher Scientific, cat. 15630080), 1X GlutaMAX supplement (Thermo Fisher Scientific, cat. 35050061), 0.1 mg/mL primocin (InvivoGen, San Diego, CA, cat. ant-pm-2), 10% defined fetal bovine serum, heat inactivated (HyClone Laboratories Inc., Logan, UT, cat. SH30070.03HI), 50% L-WRN conditioned media (ATCC, cat. CRL-3276), 1.25 mM N-Acetyl-L-cysteine (Sigma-Aldrich, cat. A9165), 10 mM nicotinamide (Sigma-Aldrich, cat. N0636), 1X B-27 supplement (Thermo Fisher Scientific, cat. 17504044), 1X N-2 supplement (Thermo Fisher Scientific, cat. […]

[1] = second compound 0.0316 µM, first compound 0.0316 µM
[2] = second compound 0.0316 µM, first compound 0.1 µM
[3] = second compound 0.0316 µM, first compound 0.316 µM
[4] = second compound 0.0316 µM, first compound 1 µM
[5] = second compound 0.0316 µM, first compound 3.16 µM
[6] = second compound 0.0316 µM, first compound 10 µM
[7] = second compound 0.1 µM, first compound 0.0316 µM
[8] = second compound 0.1 µM, first compound 0.1 µM
[9] = second compound 0.1 µM, first compound 0.316 µM
[10] = second compound 0.1 µM, first compound 1 µM
[11] = second compound 0.1 µM, first compound 3.16 µM
[12] = second compound 0.1 µM, first compound 10 µM
[13] = second compound 0.316 µM, first compound 0.0316 µM
[14] = second compound 0.316 µM, first compound 0.1 µM
[15] = second compound 0.316 µM, first compound 0.316 µM
[16] = second compound 0.316 µM, first compound 1 µM
[17] = second compound 0.316 µM, first compound 3.16 µM
[18] = second compound 0.316 µM, first compound 10 µM
[19] = second compound 1 µM, first compound 0.0316 µM
[20] = second compound 1 µM, first compound 0.1 µM
[21] = second compound 1 µM, first compound 0.316 µM
[22] = second compound 1 µM, first compound 1 µM
[23] = second compound 1 µM, first compound 3.16 µM
[24] = second compound 1 µM, first compound 10 µM
[25] = second compound 3.16 µM, first compound 0.0316 µM
[26] = second compound 3.16 µM, first compound 0.1 µM
[27] = second compound 3.16 µM, first compound 0.316 µM
[28] = second compound 3.16 µM, first compound 1 µM
[29] = second compound 3.16 µM, first compound 3.16 µM
[30] = second compound 3.16 µM, first compound 10 µM
[31] = second compound 10 µM, first compound 0.0316 µM
[32] = second compound 10 µM, first compound 0.1 µM
[33] = second compound 10 µM, first compound 0.316 µM
[34] = second compound 10 µM, first compound 1 µM
[35] = second compound 10 µM, first compound 3.16 µM
[36] = second compound 10 µM, first compound 10 µM
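Further: spheroids exposed to compounds for one week.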
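Wherever viability, T/C is given: 100% = vehicle DMSO treated spheroids.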

Compound: CCc1cc2c(N3CCc4c(cc(Cn5ccnc5)cc4-c4cn(C)nc4C(F)(F)F)C3=O)cc(C)nc2c(OC)n1 + Cc1cccc(N(C)C(=O)C2C(O)CCN2c2nc(C)cc(C(F)(F)F)c2C#N)c1
- IC50 (second compound 0.0316 µM): 6.44 µM
- IC50 (second compound 0.1 µM): 5.35 µM
- IC50 (second compound 0.316 µM): 4.3 µM
- IC50 (second compound 1 µM): 5.15 µM
- IC50 (second compound 3.16 µM): 3.65 µM
- IC50 (second compound 10 µM): 2.27 µM
- viability, T/C [1]: 104%
- viability, T/C [2]: 116%
- viability, T/C [3]: 84%
- viability, T/C [4]: 94%
- viability, T/C [5]: 65.5%
- viability, T/C [6]: 39.3%
- viability, T/C [7]: 97.3%
- viability, T/C [8]: 94.7%
- viability, T/C [9]: 99.7%
- viability, T/C [10]: 75.6%
- viability, T/C [11]: 66.3%
- viability, T/C [12]: 33.1%
- viability, T/C [13]: 92.4%
- viability, T/C [14]: 102%
- viability, T/C [15]: 98.8%
- viability, T/C [16]: 81.8%
- viability, T/C [17]: 58.8%
- viability, T/C [18]: 28.5%
- viability, T/C [19]: 111%
- viability, T/C [20]: 106%
- viability, T/C [21]: 92.2%
- viability, T/C [22]: 88.1%
- viability, T/C [23]: 62.7%
- viability, T/C [24]: 31.6%
- viability, T/C [25]: 101%
- viability, T/C [26]: 98.6%
- viability, T/C [27]: 94%
- viability, T/C [28]: 82.3%
- viability, T/C [29]: 52.1%
- viability, T/C [30]: 31.8%
- viability, T/C [31]: 92.5%
- viability, T/C [32]: 76.1%
- viability, T/C [33]: 70.4%
- viability, T/C [34]: 58.4%
- viability, T/C [35]: 48.1%
- viability, T/C [36]: 34.1%

Compound: CNCc1ccc(-c2[nH]c3cc(F)cc4c3c2CCNC4=O)cc1 + Cc1cccc(N(C)C(=O)C2C(O)CCN2c2nc(C)cc(C(F)(F)F)c2C#N)c1
- IC50 (second compound 0.0316 µM): > 10 µM
- IC50 (second compound 0.1 µM): > 10 µM
- IC50 (second compound 0.316 µM): > 10 µM
- IC50 (second compound 1 µM): > 10 µM
- IC50 (second compound 3.16 µM): > 10 µM
- IC50 (second compound 10 µM): > 10 µM
- viability, T/C [1]: 107%
- viability, T/C [2]: 104%
- viability, T/C [3]: 107%
- viability, T/C [4]: 106%
- viability, T/C [5]: 107%
- viability, T/C [6]: 107%
- viability, T/C [7]: 108%
- viability, T/C [8]: 110%
- viability, T/C [9]: 103%
- viability, T/C [10]: 101%
- viability, T/C [11]: 106%
- viability, T/C [12]: 105%
- viability, T/C [13]: 120%
- viability, T/C [14]: 104%
- viability, T/C [15]: 104%
- viability, T/C [16]: 105%
- viability, T/C [17]: 113%
- viability, T/C [18]: 98.9%
- viability, T/C [19]: 108%
- viability, T/C [20]: 94.9%
- viability, T/C [21]: 104%
- viability, T/C [22]: 114%
- viability, T/C [23]: 106%
- viability, T/C [24]: 107%
- viability, T/C [25]: 110%
- viability, T/C [26]: 96.5%
- viability, T/C [27]: 102%
- viability, T/C [28]: 108%
- viability, T/C [29]: 107%
- viability, T/C [30]: 99.3%
- viability, T/C [31]: 109%
- viability, T/C [32]: 95.2%
- viability, T/C [33]: 104%
- viability, T/C [34]: 101%
- viability, T/C [35]: 91.4%
- viability, T/C [36]: 98.6%
